# Where a SMILES comes first, the peptide text is derived from it. Bridges are numbered along the chain shown (N, C = ends). [ ]: non-standard residue; d: D form. The star is where a group is joined. Quinoxaline2carbonyl = O=C(c1cnc2ccccc2n1)*; X24 = O=C(c1cccc(C(F)(F)F)n1)*; X49 = O=C(c1cnc(C(F)(F)F)nc1)*; X22 = Cn1c(C(=O)*)cc2ccccc21; X42 = O=C(c1nc2ccccc2[nH]1)*; X5 = Cc1ccc2nc(C(=O)*)cn2c1; X12 = CCc1ccc(C(=O)*)nc1; X26 = CCc1ccc(C(=O)*)cn1; X54 = O=C(c1cccc(Cl)n1)*; Dab = NCC[C@H](N)C(=O)O; Abu = CC[C@H](N)C(=O)O; Dap = NC[C@H](N)C(=O)O
# Assays:
# Assay type in all cases: cell-based
# [1] = tested on: Acinetobacter baumannii ATCC 17978; conditions: ATCC 17978
# In short: (§1)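 In cation-adjusted Mueller-Hinton broth, each lipopeptide (TFA salt) was titrated against the bacteria by microdilution and the minimum inhibitory concentration recorded per CLSI M100-S24; polymyxin B sulphate ran in parallel.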
# [2] = tested on: Acinetobacter baumannii FADDI-AB034; conditions: FADDI-AB034
# In short: as §1
# [3] = tested on: Enterobacter cloacae FADDI-EC001; conditions: FADDI-EC001
# In short: (§2)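 Broth microdilution MIC per CLSI in cation-adjusted Mueller-Hinton broth, lipopeptides tested as TFA salts. Polymyxin B sulphate served as control.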
# [4] = tested on: Enterobacter cloacae FADDI-EC003; conditions: FADDI-EC003
# In short: as §1
# [5] = tested on: Enterobacter cloacae FADDI-EC006; conditions: FADDI-EC006
# In short: as §1
# [6] = tested on: Klebsiella pneumoniae FADDI-KP022; conditions: FADDI-KP022
# In short: as §1
# [7] = tested on: Klebsiella pneumoniae FADDI-KP032; conditions: FADDI-KP032
# In short: as §1
# [8] = tested on: Klebsiella pneumoniae Kp BM1; conditions: Kp BM1
# In short: as §2
# [9] = tested on: Pseudomonas aeruginosa ATCC 27853; conditions: ATCC 27853
# In short: as §1
# [10] = tested on: Pseudomonas aeruginosa FADDI-PA01; conditions: FADDI-
# In short: as §1
# [11] = tested on: Pseudomonas aeruginosa FADDI-PA022; conditions: FADDI-PA022
# In short: as §1
# [12] = tested on: Pseudomonas aeruginosa FADDI-PA038; conditions: FADDI-PA038
# In short: as §1
# [13] = tested on: Acinetobacter baumannii FADDI-AB030; experiment: microbe, parasite or virus in culture; conditions: FADDI-AB030
# In short: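 Lipopeptide TFA salts tested against the multidrug-resistant clinical isolate by CLSI (M100-S24) broth microdilution in cation-adjusted Mueller-Hinton broth, with polymyxin B sulphate as control; MIC read.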
Compound,Minimum inhibitory concentration [1],Minimum inhibitory concentration [2],Minimum inhibitory concentration [3],Minimum inhibitory concentration [4],Minimum inhibitory concentration [5],Minimum inhibitory concentration [6],Minimum inhibitory concentration [7],Minimum inhibitory concentration [8],Minimum inhibitory concentration [9],Minimum inhibitory concentration [10],Minimum inhibitory concentration [11],Minimum inhibitory concentration [12],Minimum inhibitory concentration [13]
CCc1ccc(C(=O)N[C@@H](CCN)C(=O)N[C@H](C(=O)N[C@@H](CN)C(=O)N[C@H]2CCNC(=O)[C@H]([C@@H](C)O)NC(=O)[C@H](CCN)NC(=O)[C@H](CCN)NC(=O)[C@H](CC)NC(=O)[C@@H](CC(C)C)NC(=O)[C@H](CCN)NC2=O)[C@@H](C)O)cn1 [Compound 41] (X26-[Dab]T[Dap][Dab][Dab][dL][Abu][Dab][Dab]T; lactam 4-C),2 µg/mL,2 µg/mL,<0.125 µg/mL,<0.125 µg/mL,0.25 µg/mL,<0.125 µg/mL,<0.125 µg/mL,<0.125 µg/mL,0.25 µg/mL,0.25 µg/mL,<0.125 µg/mL,0.5 µg/mL,2 µg/mL
CCc1ccc(C(=O)N[C@@H](CCN)C(=O)N[C@H](C(=O)N[C@@H](CN)C(=O)N[C@H]2CCNC(=O)[C@H]([C@@H](C)O)NC(=O)[C@H](CCN)NC(=O)[C@H](CCN)NC(=O)[C@H](CC)NC(=O)[C@@H](CC(C)C)NC(=O)[C@H](CCN)NC2=O)[C@@H](C)O)nc1 [Compound 42] (X12-[Dab]T[Dap][Dab][Dab][dL][Abu][Dab][Dab]T; lactam 4-C),1 µg/mL,0.5 µg/mL,<0.125 µg/mL,<0.125 µg/mL,<0.125 µg/mL,<0.125 µg/mL,<0.125 µg/mL,0.25 µg/mL,<0.125 µg/mL,<0.125 µg/mL,<0.125 µg/mL,0.25 µg/mL,<0.125 µg/mL
CC[C@@H]1NC(=O)[C@@H](CC(C)C)NC(=O)[C@H](CCN)NC(=O)[C@@H](NC(=O)[C@H](CN)NC(=O)[C@@H](NC(=O)[C@H](CCN)NC(=O)c2cccc(Cl)n2)[C@@H](C)O)CCNC(=O)[C@H]([C@@H](C)O)NC(=O)[C@H](CCN)NC(=O)[C@H](CCN)NC1=O [Compound 43] (X54-[Dab]T[Dap][Dab][Dab][dL][Abu][Dab][Dab]T; lactam 4-C),4 µg/mL,4 µg/mL,<0.125 µg/mL,0.25 µg/mL,0.5 µg/mL,<0.125 µg/mL,0.25 µg/mL,0.25 µg/mL,0.25 µg/mL,0.25 µg/mL,0.25 µg/mL,1 µg/mL,4 µg/mL
CC[C@@H]1NC(=O)[C@@H](CC(C)C)NC(=O)[C@H](CCN)NC(=O)[C@@H](NC(=O)[C@H](CN)NC(=O)[C@@H](NC(=O)[C@H](CCN)NC(=O)c2cccc(C(F)(F)F)n2)[C@@H](C)O)CCNC(=O)[C@H]([C@@H](C)O)NC(=O)[C@H](CCN)NC(=O)[C@H](CCN)NC1=O [Compound 44] (X24-[Dab]T[Dap][Dab][Dab][dL][Abu][Dab][Dab]T; lactam 4-C),2 µg/mL,2 µg/mL,<0.125 µg/mL,<0.125 µg/mL,0.5 µg/mL,<0.125 µg/mL,<0.125 µg/mL,<0.125 µg/mL,<0.125 µg/mL,<0.125 µg/mL,0.25 µg/mL,0.5 µg/mL,1 µg/mL
CC[C@@H]1NC(=O)[C@@H](CC(C)C)NC(=O)[C@H](CCN)NC(=O)[C@@H](NC(=O)[C@H](CN)NC(=O)[C@@H](NC(=O)[C@H](CCN)NC(=O)c2cnc(C(F)(F)F)nc2)[C@@H](C)O)CCNC(=O)[C@H]([C@@H](C)O)NC(=O)[C@H](CCN)NC(=O)[C@H](CCN)NC1=O [Compound 45] (X49-[Dab]T[Dap][Dab][Dab][dL][Abu][Dab][Dab]T; lactam 4-C),2 µg/mL,0.5 µg/mL,<0.125 µg/mL,2 µg/mL,2 µg/mL,<0.125 µg/mL,0.5 µg/mL,0.5 µg/mL,0.25 µg/mL,<0.125 µg/mL,0.25 µg/mL,1 µg/mL,0.5 µg/mL
CC[C@@H]1NC(=O)[C@@H](CC(C)C)NC(=O)[C@H](CCN)NC(=O)[C@@H](NC(=O)[C@H](CN)NC(=O)[C@@H](NC(=O)[C@H](CCN)NC(=O)c2cnc3ccccc3n2)[C@@H](C)O)CCNC(=O)[C@H]([C@@H](C)O)NC(=O)[C@H](CCN)NC(=O)[C@H](CCN)NC1=O [Compound 46] (Quinoxaline2carbonyl-[Dab]T[Dap][Dab][Dab][dL][Abu][Dab][Dab]T; lactam 4-C),4 µg/mL,4 µg/mL,0.25 µg/mL,0.25 µg/mL,2 µg/mL,<0.125 µg/mL,<0.125 µg/mL,0.25 µg/mL,0.5 µg/mL,0.25 µg/mL,0.5 µg/mL,0.5 µg/mL,2 µg/mL
CC[C@@H]1NC(=O)[C@@H](CC(C)C)NC(=O)[C@H](CCN)NC(=O)[C@@H](NC(=O)[C@H](CN)NC(=O)[C@@H](NC(=O)[C@H](CCN)NC(=O)c2nc3ccccc3[nH]2)[C@@H](C)O)CCNC(=O)[C@H]([C@@H](C)O)NC(=O)[C@H](CCN)NC(=O)[C@H](CCN)NC1=O [Compound 47] (X42-[Dab]T[Dap][Dab][Dab][dL][Abu][Dab][Dab]T; lactam 4-C),1 µg/mL,1 µg/mL,<0.125 µg/mL,<0.125 µg/mL,0.5 µg/mL,<0.125 µg/mL,0.25 µg/mL,0.25 µg/mL,0.5 µg/mL,<0.125 µg/mL,0.25 µg/mL,0.5 µg/mL,0.25 µg/mL
CC[C@@H]1NC(=O)[C@@H](CC(C)C)NC(=O)[C@H](CCN)NC(=O)[C@@H](NC(=O)[C@H](CN)NC(=O)[C@@H](NC(=O)[C@H](CCN)NC(=O)c2cc3ccccc3n2C)[C@@H](C)O)CCNC(=O)[C@H]([C@@H](C)O)NC(=O)[C@H](CCN)NC(=O)[C@H](CCN)NC1=O [Compound 48] (X22-[Dab]T[Dap][Dab][Dab][dL][Abu][Dab][Dab]T; lactam 4-C),<0.125 µg/mL,0.25 µg/mL,<0.125 µg/mL,0.25 µg/mL,0.25 µg/mL,<0.125 µg/mL,<0.125 µg/mL,<0.125 µg/mL,0.25 µg/mL,<0.125 µg/mL,0.25 µg/mL,<0.125 µg/mL,<0.125 µg/mL
CC[C@@H]1NC(=O)[C@@H](CC(C)C)NC(=O)[C@H](CCN)NC(=O)[C@@H](NC(=O)[C@H](CN)NC(=O)[C@@H](NC(=O)[C@H](CCN)NC(=O)c2cn3cc(C)ccc3n2)[C@@H](C)O)CCNC(=O)[C@H]([C@@H](C)O)NC(=O)[C@H](CCN)NC(=O)[C@H](CCN)NC1=O [Compound 49] (X5-[Dab]T[Dap][Dab][Dab][dL][Abu][Dab][Dab]T; lactam 4-C),2 µg/mL,4 µg/mL,<0.125 µg/mL,<0.125 µg/mL,1 µg/mL,<0.125 µg/mL,<0.125 µg/mL,0.25 µg/mL,0.25 µg/mL,0.25 µg/mL,0.5 µg/mL,0.5 µg/mL,1 µg/mL

# — patent publication US11225505B2, “Antimicrobial polymyxin derivative compounds” (MONASH UNIVERSITY, priority 2015, dated 2022)
